# From patent US7625950B2, “Amino-propanol derivatives as sphingosine-1-phosphate receptor modulator” (Novartis AG, priority 2003, dated 2009)
# Structures can show the parent of a compound that is named as a salt.
# Columns and labels:
# [1] = biological target: T1, human S1P receptor EDG-3 (S1P3) (Homo sapiens, UniProt Q99500); assay: S1P receptor profiling, GTP[γ-35S] binding SPA, S1P3; type: biochemical; conditions: for S1P3 mode of action (Agon. = agonist): GTP[γ-35S] binding SPA; for EC50: GTP[γ-35S] binding to membrane protein of transfected CHO or RH7777 cells, SPA
# T1 construct: expressed in transfected cells
# Experimental: (§1) Sphingosine-1-Phosphate (S1P) Receptor Profiling
# (§2) Agonist activities of compounds are tested on the human SIP receptors EDG-1 (S1P1), EDG-3 (S1P3), EDG-5 (S1P2), EDG-6 (S1P4) and EDG-8 (S1P5). […] The assay technology used is SPA (scintillation proximity based assay). Briefly, DMSO dissolved compounds are serially diluted and added to SPA-bead (Amersham-Pharmacia) immobilised SIP receptor expressing membrane protein (10-20 μg/well) in the presence of 50 mM Hepes, 100 mM NaCl, 10 mM MgCl2, 10 μM GDP, 0.1% fat free BSA and 0.2 nM GTP [γ-^35S] (1200 Ci/mmol). After incubation in 96 well microtiterplates at RT for 120 min, unbound GTP [γ-^35S] is separated by a centrifugation step. Luminescence of SPA beads triggered by membrane bound GTP [γ-^35S] is quantified with a TOP count plate reader (Packard). EC50s are calculated using standard curve fitting software. In this assay, the compounds of formula I have a binding affinity to S1P1 receptor <50 nM.
# [2] = biological target: T2, human S1P receptor EDG-6 (S1P4) (Homo sapiens, UniProt O95977); assay: S1P receptor profiling, GTP[γ-35S] binding SPA, S1P4; type: biochemical; conditions: for S1P4 mode of action (Agon. = agonist): GTP[γ-35S] binding SPA; for EC50: GTP[γ-35S] binding to membrane protein of transfected CHO or RH7777 cells, SPA
# T2 construct: expressed in transfected cells
# T2 sequence (O95977 1-384): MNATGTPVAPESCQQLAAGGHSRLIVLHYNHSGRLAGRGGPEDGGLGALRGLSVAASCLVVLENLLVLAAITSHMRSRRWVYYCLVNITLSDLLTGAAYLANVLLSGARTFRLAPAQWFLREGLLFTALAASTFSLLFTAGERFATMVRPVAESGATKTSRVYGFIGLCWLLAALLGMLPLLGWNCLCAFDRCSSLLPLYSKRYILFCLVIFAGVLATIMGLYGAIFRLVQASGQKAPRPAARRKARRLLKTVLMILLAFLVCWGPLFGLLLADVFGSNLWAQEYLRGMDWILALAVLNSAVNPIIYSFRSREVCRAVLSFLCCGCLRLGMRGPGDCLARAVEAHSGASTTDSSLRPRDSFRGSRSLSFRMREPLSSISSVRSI
# Experimental: as §1, §2
# [3] = biological target: T3, human S1P receptor EDG-8 (S1P5) (Homo sapiens, UniProt Q9H228); assay: S1P receptor profiling, GTP[γ-35S] binding SPA, S1P5; type: biochemical; conditions: for S1P5 mode of action (Agon. = agonist): GTP[γ-35S] binding SPA; for EC50: GTP[γ-35S] binding to membrane protein of transfected CHO or RH7777 cells, SPA
# T3 construct: expressed in transfected cells
# Experimental: as §1, §2
# [4] = biological target: T4, human S1P receptor EDG-1 (S1P1) (Homo sapiens, UniProt P21453); assay: S1P receptor profiling, GTP[γ-35S] binding SPA, S1P1; type: biochemical; conditions: for S1P1 mode of action (Agon. = agonist): GTP[γ-35S] binding SPA; for EC50: GTP[γ-35S] binding to membrane protein of transfected CHO or RH7777 cells, SPA
# T4 construct: expressed in transfected cells
# Experimental: as §1, §2
# [5] = system: peripheral blood lymphocytes; assay: Blood lymphocyte depletion; type: in vivo; conditions: rats, p.o.
# Experimental: B. In Vivo: Blood Lymphocyte Depletion
# A compound of formula I or the vehicle is administered orally by gavage to rats. Tail blood for hematological monitoring is obtained on day −1 to give the baseline individual values, and at 2, 6, 24, 48 and 72 hours after application.
# T1 sequence (Q99500 whole entry): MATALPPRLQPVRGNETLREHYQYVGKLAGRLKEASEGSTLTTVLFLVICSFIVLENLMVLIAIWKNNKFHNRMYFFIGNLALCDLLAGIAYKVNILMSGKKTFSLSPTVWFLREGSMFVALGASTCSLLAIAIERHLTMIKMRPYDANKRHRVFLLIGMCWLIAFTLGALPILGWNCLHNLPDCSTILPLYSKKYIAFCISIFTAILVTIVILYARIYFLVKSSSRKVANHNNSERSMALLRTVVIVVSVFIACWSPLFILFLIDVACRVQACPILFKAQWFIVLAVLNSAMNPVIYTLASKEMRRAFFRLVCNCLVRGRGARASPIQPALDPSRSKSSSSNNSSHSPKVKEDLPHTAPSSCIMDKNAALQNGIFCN
# T4 sequence (P21453 whole entry): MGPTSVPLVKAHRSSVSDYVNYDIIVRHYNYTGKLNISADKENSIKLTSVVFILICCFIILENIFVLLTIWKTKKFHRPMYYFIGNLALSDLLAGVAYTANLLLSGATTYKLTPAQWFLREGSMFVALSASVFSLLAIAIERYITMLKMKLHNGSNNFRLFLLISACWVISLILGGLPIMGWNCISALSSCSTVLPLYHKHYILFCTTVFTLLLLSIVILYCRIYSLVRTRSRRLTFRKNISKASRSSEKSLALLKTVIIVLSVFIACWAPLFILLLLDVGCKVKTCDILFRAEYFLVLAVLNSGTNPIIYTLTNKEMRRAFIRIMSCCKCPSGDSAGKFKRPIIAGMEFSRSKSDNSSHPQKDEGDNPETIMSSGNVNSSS
# T3 sequence (Q9H228 whole entry): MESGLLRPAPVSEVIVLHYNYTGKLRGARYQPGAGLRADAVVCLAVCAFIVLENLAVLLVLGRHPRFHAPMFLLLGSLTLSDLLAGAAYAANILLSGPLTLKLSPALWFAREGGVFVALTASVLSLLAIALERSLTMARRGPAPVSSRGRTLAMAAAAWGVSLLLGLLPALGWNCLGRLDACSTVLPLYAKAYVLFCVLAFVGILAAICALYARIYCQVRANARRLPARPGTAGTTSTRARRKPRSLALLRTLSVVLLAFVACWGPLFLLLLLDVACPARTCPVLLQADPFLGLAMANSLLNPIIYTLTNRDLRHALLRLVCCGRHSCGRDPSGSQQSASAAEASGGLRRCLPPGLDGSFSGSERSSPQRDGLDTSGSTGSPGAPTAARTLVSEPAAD
S1P3 mode of action (Agon. = agonist) [1],EC50 [1] [nM],S1P4 mode of action (Agon. = agonist) [2],EC50 [2] [nM],S1P5 mode of action (Agon. = agonist) [3],EC50 [3] [nM],S1P1 mode of action (Agon. = agonist) [4],EC50 [4] [nM],Compound,dose giving depletion of peripheral blood lymphocytes by more than 50% ([5]; after 6 h) [mg/kg],dose giving depletion of peripheral blood lymphocytes by more than 50% ([5]; after 24 h) [mg/kg],dose giving depletion of peripheral blood lymphocytes by more than 50% ([5]; after 48 h) [mg/kg]
Agon.,> 10000,Agon.,1.6,Agon,16.5,Agon.,8.5,COc1ccc(Br)cc1OCCCOc1ccc(CCC(N)(CO)COP(=O)(O)O)cc1 (centres unmarked) [Example 56],–,–,–
–,> 1000,Agon.,28,Agon.,11.7,Agon.,8.6,C[C@@](N)(CCc1ccc(OCCOc2ccccc2)cc1)COP(=O)(O)O [Example 38],–,–,–
Agon.,340,Agon.,43,Agon.,0.5,Agon.,8,COc1cc(CC[C@@](C)(N)COP(=O)(O)O)ccc1OCCOc1ccccc1 [Example 43],–,–,–
Agon.,15,–,> 1000,Agon.,14,Agon.,0.6,"C[C@@](N)(CCc1ccc(OCCOc2ccc(Cl)cc2)cc1)COP(=O)(O)O [Example 36, (R)-Mono-(2-amino-4-{4-[2-(4-chloro-phenoxy)-ethoxy]-phenyl}-2-methyl-butyl) phosphate]",–,–,–

# Second part, the molecule before the results:
Compound,S1P3 mode of action (Agon. = agonist) [1],EC50 [1] [nM],S1P4 mode of action (Agon. = agonist) [2],EC50 [2] [nM],S1P5 mode of action (Agon. = agonist) [3],EC50 [3] [nM],S1P1 mode of action (Agon. = agonist) [4],EC50 [4] [nM],dose giving depletion of peripheral blood lymphocytes by more than 50% ([5]; after 6 h) [mg/kg],dose giving depletion of peripheral blood lymphocytes by more than 50% ([5]; after 24 h) [mg/kg],dose giving depletion of peripheral blood lymphocytes by more than 50% ([5]; after 48 h) [mg/kg]
"C[C@](N)(CO)CCc1ccc(OCCOc2ccc(Cl)cc2)cc1 [Example 1, (R)-2-Amino-4-{4-[2-(4-chloro-phenoxy)-ethoxy]-phenyl}-2-methyl-butan-1-ol Hydrochloride]",–,–,–,–,–,–,–,–,0.03,0.02,–
"COc1ccc(Br)cc1OCCCOc1ccc(CC[C@@](C)(N)CO)cc1 [Example 53, (R)-2-Amino-4-{4-[3-(5-bromo-2-methoxy-phenoxy)-propoxy]-phenyl}-2-methyl-butan-1-ol Hydrochloride]",–,–,–,–,–,–,–,–,0.1,–,0.5
C[C@@](N)(CCc1ccc(OCCOc2cccc(F)c2F)cc1)COP(=O)(O)O [Example 42],–,> 1000,Agon.,8.2,Agon.,6.3,Agon.,5.5,–,–,–
